Test results: PubChem BioAssay AID330 (DTP/NCI, 2004)
“And” between values parts separate entries of the source, which are not always exact repeats. Equal entries are not always repeated. Inconclusive results and toxic doses are left out. How the source made its calls: active means survival T/C of 150% or more; inactive means T/C below 125% in these data.

Test system: P388 leukemia ip, CD2F1 mice, survival T/C
Experiment: NCI In Vivo Anticancer Drug Screen. Data for tumor model P388 Leukemia (intraperitoneal) in CD2F1 (CDF1) mice
Conditions: endpoint: median survival time, higher = longer survival
Outline: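 Mice carrying the transplanted tumor received test compound or vehicle. Survival was recorded in each group, and the value is the treated-group measurement divided by that of the vehicle-treated control group.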

[1] = dose: 50.0 mg/kg/injection, schedule: Q01DX009 (ip), vehicle: saline
[2] = dose: 100.0 mg/kg/injection, schedule: Q01DX009 (ip), vehicle: saline
[3] = dose: 200.0 mg/kg/injection, schedule: Q01DX009 (ip), vehicle: saline
[4] = dose: 50.0 mg/kg/injection, schedule: Q01DX009 (ip), vehicle: saline with Tween-80
[5] = dose: 100.0 mg/kg/injection, schedule: Q01DX009 (ip), vehicle: saline with Tween-80
[6] = dose: 200.0 mg/kg/injection, schedule: Q01DX009 (ip), vehicle: saline with Tween-80
[7] = dose: 120.0 mg/kg/injection, schedule: Q01DX005 (ip), vehicle: Klucel (hydroxypropylcellulose) (HPC)
[8] = dose: 50.0 mg/kg/injection, schedule: Q01DX009 (ip), vehicle: Klucel (hydroxypropylcellulose) (HPC)
[9] = dose: 60.0 mg/kg/injection, schedule: Q01DX005 (ip), vehicle: saline with Tween-80
[10] = dose: 120.0 mg/kg/injection, schedule: Q01DX005 (ip), vehicle: saline with Tween-80
[11] = dose: 240.0 mg/kg/injection, schedule: Q01DX005 (ip), vehicle: saline with Tween-80
[12] = dose: 100.0 mg/kg/injection, schedule: Q04DX003 (ip), vehicle: Klucel (hydroxypropylcellulose) (HPC)
[13] = dose: 200.0 mg/kg/injection, schedule: Q04DX003 (ip), vehicle: Klucel (hydroxypropylcellulose) (HPC)
[14] = dose: 400.0 mg/kg/injection, schedule: Q04DX003 (ip), vehicle: Klucel (hydroxypropylcellulose) (HPC)
[15] = dose: 50.0 mg/kg/injection, schedule: Q01DX005 (ip), vehicle: saline with Tween-80
[16] = dose: 100.0 mg/kg/injection, schedule: Q01DX005 (ip), vehicle: saline with Tween-80
[17] = dose: 200.0 mg/kg/injection, schedule: Q01DX005 (ip), vehicle: saline with Tween-80

Measured: T/C

CCC(=O)NC(Cc1ccsc1)C(=O)O (stereo unspecified)
inactive: dose: 12.5 mg/kg/injection, schedule: Q01DX009 (ip), vehicle: saline 103 % of control | dose: 25.0 mg/kg/injection, schedule: Q01DX009 (ip), vehicle: saline 107 % of control | [1] 98 % of control | [2] 90 % of control | [3] 90 % of control

O=S(=O)(O)CNc1cccc(Cl)c1
inactive: [4] 106 % of control | [5] 95 % of control | [6] 98 % of control

Cc1cc(Oc2cnc(=O)[nH]c2)cs1
inactive: dose: 60.0 mg/kg/injection, schedule: Q01DX005 (ip), vehicle: Klucel (hydroxypropylcellulose) (HPC) 100 % of control | [7] 94 % of control | dose: 240.0 mg/kg/injection, schedule: Q01DX005 (ip), vehicle: Klucel (hydroxypropylcellulose) (HPC) 94 % of control

O=P1(N(CCCl)CCCl)Nc2cccc3cccc(c23)N1
inactive: dose: 6.25 mg/kg/injection, schedule: Q01DX009 (ip), vehicle: Klucel (hydroxypropylcellulose) (HPC) 110 % of control and 111 % of control | dose: 12.5 mg/kg/injection, schedule: Q01DX009 (ip), vehicle: Klucel (hydroxypropylcellulose) (HPC) 103 % of control and 114 % of control | dose: 25.0 mg/kg/injection, schedule: Q01DX009 (ip), vehicle: Klucel (hydroxypropylcellulose) (HPC) 102 % of control and 119 % of control | [8] 120 % of control

CC(=NCCCCN=C(C)c1cc(O)cc(Br)c1O)c1cc(O)cc(Br)c1O.[Co]
inactive: [9] 90 % of control | [10] 98 % of control | [11] 94 % of control

Cc1c2ccccc2c(C)c2c1cc[n+]1ccccc21
inactive: dose: 6.25 mg/kg/injection, schedule: Q04DX003 (ip), vehicle: other 105 % of control | dose: 12.5 mg/kg/injection, schedule: Q04DX003 (ip), vehicle: other 103 % of control | dose: 25.0 mg/kg/injection, schedule: Q04DX003 (ip), vehicle: other 99 % of control

Cc1ccc(NC(=S)C#N)cc1Cl
inactive: dose: 6.25 mg/kg/injection, schedule: Q01DX005 (ip), vehicle: saline with Tween-80 90 % of control | dose: 12.5 mg/kg/injection, schedule: Q01DX005 (ip), vehicle: saline with Tween-80 92 % of control | dose: 25.0 mg/kg/injection, schedule: Q01DX005 (ip), vehicle: saline with Tween-80 90 % of control

Cn1cc(Cl)nc1CO
inactive: dose: 50.0 mg/kg/injection, schedule: Q04DX003 (ip), vehicle: saline sonified 95 % of control | dose: 100.0 mg/kg/injection, schedule: Q04DX003 (ip), vehicle: saline sonified 100 % of control | dose: 200.0 mg/kg/injection, schedule: Q04DX003 (ip), vehicle: saline sonified 100 % of control

O=C1COC(c2ccccc2O)=NN1Cc1ccccc1
inactive: [4] 94 % of control | [5] 92 % of control | [6] 99 % of control

O=P(c1ccccc1)(c1ccccc1)C(O)c1cccs1 (stereo unspecified)
inactive: [8] 90 % of control | dose: 100.0 mg/kg/injection, schedule: Q01DX009 (ip), vehicle: Klucel (hydroxypropylcellulose) (HPC) 88 % of control | dose: 200.0 mg/kg/injection, schedule: Q01DX009 (ip), vehicle: Klucel (hydroxypropylcellulose) (HPC) 92 % of control

Cc1ccc(N2C(=O)CC3(CCCC3)C2=O)cc1C
inactive: [12] 100 % of control | [13] 98 % of control | [14] 98 % of control

Nc1nc(N)c2c(ccc3nccc32)[nH]1
inactive: dose: 6.25 mg/kg/injection, schedule: Q01DX005 (ip), vehicle: saline 103 % of control | dose: 12.5 mg/kg/injection, schedule: Q01DX005 (ip), vehicle: saline 103 % of control | dose: 25.0 mg/kg/injection, schedule: Q01DX005 (ip), vehicle: saline 110 % of control

Cc1[nH]nc2c1NC(=O)OC2
inactive: [15] 104 % of control | [16] 104 % of control | [17] 106 % of control

CCCCOC(=O)C1(N)CCCC1
inactive: dose: 100.0 mg/kg/injection, schedule: Q04DX003 (ip), vehicle: saline 100 % of control | dose: 200.0 mg/kg/injection, schedule: Q04DX003 (ip), vehicle: saline 109 % of control

CC(=O)OC1C(OC(=O)c2ccccc2)C=CC2OC21COC(=O)c1ccccc1 (stereo unspecified)
inactive: dose: 25.0 mg/kg/injection, schedule: Q01DX005 (ip), vehicle: saline + alcohol 97 % of control | dose: 50.0 mg/kg/injection, schedule: Q01DX005 (ip), vehicle: saline + alcohol 105 % of control | dose: 100.0 mg/kg/injection, schedule: Q01DX005 (ip), vehicle: saline + alcohol 98 % of control | dose: 200.0 mg/kg/injection, schedule: Q01DX005 (ip), vehicle: saline + alcohol 91 % of control

COc1ccc(-c2cc(=O)c3cc(C)c(C)c(C#N)c3o2)cc1
inactive: dose: 3.75 mg/kg/injection, schedule: Q01DX005 (ip), vehicle: Klucel (hydroxypropylcellulose) (HPC) 120 % of control | dose: 7.5 mg/kg/injection, schedule: Q01DX005 (ip), vehicle: Klucel (hydroxypropylcellulose) (HPC) 93 % of control | dose: 15.0 mg/kg/injection, schedule: Q01DX005 (ip), vehicle: Klucel (hydroxypropylcellulose) (HPC) 109 % of control | [7] 86 % of control

CCOc1nc(C(=O)O)cc2sccc12
inactive: dose: 100.0 mg/kg/injection, schedule: Q01DX001 (ip), vehicle: Klucel (hydroxypropylcellulose) (HPC) 90 % of control | dose: 200.0 mg/kg/injection, schedule: Q01DX001 (ip), vehicle: Klucel (hydroxypropylcellulose) (HPC) 93 % of control | dose: 400.0 mg/kg/injection, schedule: Q01DX001 (ip), vehicle: Klucel (hydroxypropylcellulose) (HPC) 88 % of control

CCCCCC/C=N/N1C(=O)C2C3C=CC(O3)C2C1=O (stereo unspecified)
inactive: [15] 103 % of control | [16] 108 % of control | [17] 95 % of control

O=c1c2ccccc2[nH]c2cc3c(=O)n4ccccc4nc3cc12
inactive: dose: 30.0 mg/kg/injection, schedule: Q01DX005 (ip), vehicle: saline with Tween-80 94 % of control | [9] 101 % of control and 91 % of control | [10] 93 % of control | [11] 93 % of control

NNC(=O)C1C2c3ccccc3C(c3ccccc32)C1C(=O)NN (stereo unspecified)
inactive: [9] 99 % of control | [10] 99 % of control | [11] 96 % of control

O=C(O)c1cc([N+](=O)[O-])cc([N+](=O)[O-])c1Sc1ncccn1
inactive: [1] 96 % of control | [2] 100 % of control | [3] 101 % of control

CC(=O)c1c(C)nc2c(-c3ccccc3)[nH]c(C)c2c1C
inactive: [12] 100 % of control | [13] 102 % of control | [14] 111 % of control

O=[N+]([O-])c1ccc(/C=C(/c2ccc([N+](=O)[O-])o2)S(=O)(=O)c2ccccc2)cc1
inactive: dose: 50.0 mg/kg/injection, schedule: Q01DX009 (ip), vehicle: suspension in saline 97 % of control | dose: 100.0 mg/kg/injection, schedule: Q01DX009 (ip), vehicle: suspension in saline 103 % of control | dose: 200.0 mg/kg/injection, schedule: Q01DX009 (ip), vehicle: suspension in saline 97 % of control

NNC(=O)OC12CC3CC(CC(C3)C1)C2
inactive: dose: 25.0 mg/kg/injection, schedule: Q01DX009 (ip), vehicle: saline with Tween-80 110 % of control | [4] 110 % of control

COC(=O)C[C@@]1(C(=O)OC)[C@@H](C(=O)OC)C(C(=O)OC)=NN1C
inactive: dose: 12.5 mg/kg/injection, schedule: Q04DX002 (ip), vehicle: Klucel (hydroxypropylcellulose) (HPC) 100 % of control | dose: 25.0 mg/kg/injection, schedule: Q04DX002 (ip), vehicle: Klucel (hydroxypropylcellulose) (HPC) 98 % of control | dose: 50.0 mg/kg/injection, schedule: Q04DX002 (ip), vehicle: Klucel (hydroxypropylcellulose) (HPC) 100 % of control

O=C(CCN1C(=O)c2ccccc2C1=O)Nc1c(I)cc(I)c(C(=O)O)c1I
inactive: [9] 104 % of control | [10] 106 % of control | [11] 101 % of control

OCCN(CCO)c1ncnc2nc[nH]c12
inactive: [15] 88 % of control | [16] 96 % of control | [17] 98 % of control

COC(=O)c1ncn(CC#N)n1
inactive: dose: 50.0 mg/kg/injection, schedule: Q01DX005 (ip), vehicle: saline 110 % of control | dose: 100.0 mg/kg/injection, schedule: Q01DX005 (ip), vehicle: saline 112 % of control | dose: 200.0 mg/kg/injection, schedule: Q01DX005 (ip), vehicle: saline 105 % of control

COC(=O)C1(C(=O)OC)C2C=CCC21 (stereo unspecified)
inactive: [4] 96 % of control | [5] 102 % of control | [6] 104 % of control
